Data from patent US20240358693A1, “METHODS OF TREATING PAIN” (Aisa Pharma, Inc., priority 2023, published 2024).

System: participants with SSc-RP
Assay: Scleroderma Health Assessment Questionnaire (SHAQ): disability indices and visual analog scales
Assay type: in vivo, human
Details: for SHAQ Alternative Disability Index, Mean / SHAQ Alternative Disability Index, Median / SHAQ Standard Disability Index, Mean / SHAQ Standard Disability Index, Median: Patients with Diagnosis of SSc
Source text: The standard, validated, patient reported outcome measures tool for SSc patients, the Scleroderma Health Assessment Questionnaire (SHAQ), will be used to assess the participant qualify of life. Details are attached in the Appendix. The participant quality of life will be scored, and a disability index calculated for each questionnaire completed by the patient at Screening and each in-clinic visit. The absolute change in participant quality of life from baseline to the end of each dosing period will be calculated similar to frequency data as before.
The SHAQ includes a Raynaud's VAS, which will be reported at screening and each in-clinic visit. The absolute change in Raynaud-VAS, assessed by the participants response to the SHAQ question ‘In the past 7 days, how much have your Raynaud's interfered with your daily activities?’ at baseline and the end of each dosing period will be calculated similar to frequency data as before.
The SHAQ is used to calculate a Disability Index to assess the participant qualify of life. The eight categories assessed by the Disability Index are 1) dressing and grooming, 2) arising, 3) eating, 4) walking, 5) hygiene, 6) reach, 7) grip, and 8) common daily activities. For each of these categories, patients report the amount of difficulty they have in performing two or three specific activities.
There are four possible responses for the Disability Index questions: • Without any difficulty=0 • With some difficulty=1 • With much difficulty=2 • Unable to do=3. • The highest score reported by the patient for any component question of the eight categories determines the score for that category. • If a component question is left blank or the response is too ambiguous to assign a score, then the score for that category is determined by the remaining completed question(s). • If all component questions are blank or if more than one answer is given, then follow up with the respondent is required. • If the respondent's mark is between the response columns, then move it to the closest one. If it's directly between the two, move it to the higher one.
Each of the disability items on the SHAQ has a companion aids/devices variable that is used to record what type(s) of assistance, if any, the participant uses for his/her usual activities. These variables (see below) are coded as follows: • 0=No assistance is needed. • 1=A special device is used by the patient in his/her usual activities. • 2=The patient usually needs help from another person. • 3=The patient usually needs BOTH a special device AND help from another person.
The scoring variables and scoring rules permit the computation of two disability indices, the Standard Disability Index and the Alternative Disability Index.
This question results in a new set of category scores that are computed by adjusting the score for each category, if necessary, based on the patient's use of an aid or device or assistance for that category. If either devices and/or help from another person are checked for a category, the score is set to “2”, unless the score is already “3” (i.e., scores of “0” or “1” are increased to “2”). For example, if the highest score for the dressing category is “1”, and the patient says they use a device for dressing, the computed category score would be “2”. The sum of the computed categories scores is then calculated and divided by the number of categories answered. This gives a score in the 0 to 3 range.
The aid and device variables are not used to calculate the alternative disability index; it is calculated by adding the scores for each of the categories and dividing by the number of categories answered. This gives a score in the 0 to 3 range.
The standard, validated, patient reported outcome measures tool for SSc patients, the SHAQ, was collected at the time points specified in the study schedules (FIG. 2 and FIGS. 4A and 4B) to assess the participant's quality of life. The SHAQ included a Raynaud's VAS that will also be reported separately.

[1] = Day 12, mITT Part A, SSc patients, cilnidipine 10 mg and/or tadalafil 5 mg as in the arm
[2] = Day 12, mITT Part A, SSc patients, cilnidipine 10 mg and/or tadalafil 5 mg as in the arm, subject 01-110 score excluded
[3] = Day 12, mITT Part A, SSc patients, cilnidipine 20 mg (+ tadalafil 5 mg in the combination arm)
[4] = In-Clinic Visit (Day 12), Cilnidipine 10 mg (N = 4), PP Population Part A
[5] = In-Clinic Visit (Day 12), Cilnidipine 20 mg (N = 4), PP Population Part A
[6] = In-Clinic Visit (Day 12), Pooled Cilnidipine 10 mg and Cilnidipine 10 mg + Tadalafil 5 mg (N = 9), PP Population Part A

COCCOC(=O)C1=C(C)NC(C)=C(C(=O)OC/C=C/c2ccccc2)C1c1cccc([N+](=O)[O-])c1 (centres unmarked) [Cilnidipine, cilnidipine]
SHAQ Visual Analogue Scale - Raynaud's, Change from Baseline, Mean [1]: 0.167 | SHAQ Visual Analogue Scale - Raynaud's, Change from Baseline, Median [1]: −0.100 | SHAQ Visual Analogue Scale - Raynaud's, In-Clinic Visit (Day 12), Mean [1]: 2.300 | SHAQ Visual Analogue Scale - Raynaud's, In-Clinic Visit (Day 12), Median [1]: 2.600 | SHAQ Visual Analogue Scale - Raynaud's, Percent Change from Baseline, Mean [1]: 11.36% | SHAQ Visual Analogue Scale - Raynaud's, Percent Change from Baseline, Median [1]: −2.27% | SHAQ Visual Analogue Scale - Breathing Problems, Change from Baseline, Mean [2]: −0.400 | SHAQ Visual Analogue Scale - Breathing Problems, Change from Baseline, Median [2]: 0.000 | SHAQ Visual Analogue Scale - Breathing Problems, In-Clinic Visit (Day 12), Mean [2]: 2.100 | SHAQ Visual Analogue Scale - Breathing Problems, In-Clinic Visit (Day 12), Median [2]: 0.000 | SHAQ Visual Analogue Scale - Breathing Problems, Percent Change from Baseline, Mean [2]: −16.00% | SHAQ Visual Analogue Scale - Breathing Problems, Percent Change from Baseline, Median [2]: −16.00% | SHAQ Alternative Disability Index, Change from Baseline, Mean [3]: −0.083 | SHAQ Alternative Disability Index, Change from Baseline, Median [3]: −0.125 | SHAQ Alternative Disability Index, In-Clinic Visit (Day 12), Mean [3]: 0.125 | SHAQ Alternative Disability Index, In-Clinic Visit (Day 12), Median [3]: 0.125 | SHAQ Alternative Disability Index, Percent Change from Baseline, Mean [3]: −41.67% | SHAQ Alternative Disability Index, Percent Change from Baseline, Median [3]: −41.67% | SHAQ Visual Analogue Scale - Breathing Problems, Change from Baseline, Mean [3]: −0.833 | SHAQ Visual Analogue Scale - Breathing Problems, Change from Baseline, Median [3]: −0.800 | SHAQ Visual Analogue Scale - Breathing Problems, In-Clinic Visit (Day 12), Mean [3]: 0.300 | SHAQ Visual Analogue Scale - Breathing Problems, In-Clinic Visit (Day 12), Median [3]: 0.400 | SHAQ Visual Analogue Scale - Breathing Problems, Percent Change from Baseline, Mean [3]: −5.56% | SHAQ Visual Analogue Scale - Breathing Problems, Percent Change from Baseline, Median [3]: −66.67% | SHAQ Visual Analogue Scale - Finger Ulcers, Change from Baseline, Mean [3]: −0.933 | SHAQ Visual Analogue Scale - Finger Ulcers, Change from Baseline, Median [3]: 0.000 | SHAQ Visual Analogue Scale - Finger Ulcers, In-Clinic Visit (Day 12), Mean [3]: 0.867 | SHAQ Visual Analogue Scale - Finger Ulcers, In-Clinic Visit (Day 12), Median [3]: 0.700 | SHAQ Visual Analogue Scale - Finger Ulcers, Percent Change from Baseline, Mean [3]: 35.29% | SHAQ Visual Analogue Scale - Finger Ulcers, Percent Change from Baseline, Median [3]: 35.29% | SHAQ Visual Analogue Scale - Intestinal Problems, Change from Baseline, Mean [3]: 0.300 | SHAQ Visual Analogue Scale - Intestinal Problems, Change from Baseline, Median [3]: 0.300 | SHAQ Visual Analogue Scale - Intestinal Problems, In-Clinic Visit (Day 12), Median [3]: 1.300 | SHAQ Visual Analogue Scale - Intestinal Problems, Percent Change from Baseline, Mean [3]: 35.00% | SHAQ Visual Analogue Scale - Intestinal Problems, Percent Change from Baseline, Median [3]: 35.00% | SHAQ Visual Analogue Scale - Overall Disease Severity, Change from Baseline, Median [3]: −1.600 | SHAQ Visual Analogue Scale - Overall Disease Severity, In-Clinic Visit (Day 12), Mean [3]: 1.033 | SHAQ Visual Analogue Scale - Overall Disease Severity, In-Clinic Visit (Day 12), Median [3]: 1.200 | SHAQ Visual Analogue Scale - Overall Disease Severity, Percent Change from Baseline, Median [3]: −60.00% | SHAQ Visual Analogue Scale - Pain, Change from Baseline, Mean [3]: −1.100 | SHAQ Visual Analogue Scale - Pain, Change from Baseline, Median [3]: −0.800 | SHAQ Visual Analogue Scale - Pain, In-Clinic Visit (Day 12), Mean [3]: 1.067 | SHAQ Visual Analogue Scale - Pain, In-Clinic Visit (Day 12), Median [3]: 0.700 | SHAQ Visual Analogue Scale - Pain, Percent Change from Baseline, Mean [3]: −52.56% | SHAQ Visual Analogue Scale - Pain, Percent Change from Baseline, Median [3]: −53.33% | SHAQ Visual Analogue Scale - Raynaud's, Change from Baseline, Median [3]: −1.100 | SHAQ Visual Analogue Scale - Raynaud's, In-Clinic Visit (Day 12), Mean [3]: 1.033 | SHAQ Visual Analogue Scale - Raynaud's, In-Clinic Visit (Day 12), Median [3]: 1.100 | SHAQ Visual Analogue Scale - Raynaud's, Percent Change from Baseline, Median [3]: −44.00% | SHAQ Alternative Disability Index, Mean [4]: 0.563 | SHAQ Alternative Disability Index, Median [4]: 0.500 | SHAQ Standard Disability Index, Mean [4]: 0.656 | SHAQ Standard Disability Index, Median [4]: 0.563 | SHAQ Alternative Disability Index, Mean [5]: 0.219 | SHAQ Alternative Disability Index, Median [5]: 0.188 | SHAQ Standard Disability Index, Mean [5]: 0.281 | SHAQ Standard Disability Index, Median [5]: 0.188 | SHAQ Visual Analogue Scale - Finger Ulcers, Mean [6]: 0.389 | SHAQ Visual Analogue Scale - Finger Ulcers, Median [6]: 0.000 | SHAQ Visual Analogue Scale - Intestinal Problems, Mean [6]: 1.217 | SHAQ Visual Analogue Scale - Intestinal Problems, Median [6]: 0.700 | SHAQ Visual Analogue Scale - Overall Disease Severity, Mean [6]: 2.439
